Test results published in BindingDB's records for doi:10.1021/jm034065z (Pfizer, 2003).

Molecular target: Aldo-keto reductase family 1 member B1 (Homo sapiens, UniProt P15121)
Test: In Vitro Aldose Reductase Inhibition Assay
Details: pH 7; 24 °C
Experimental: The activity of the enzyme was determined spectrophotometrically by monitoring the change in absorbance at 340 nm, which is due to the disappearance of NADPH. Inhibition by test compound was measured as the percentage decrease in the rate of NADPH oxidation as compared to a sample without test compound. The determination of the IC50 values was performed by using linear regression analysis of the log dose response curve.

IC50	Structure (SMILES)
150 nM	O=c1ccc(S(=O)(=O)c2cc3ccccc3o2)n[nH]1
25 nM	O=c1ccc(S(=O)(=O)c2cc3cc(Cl)ccc3o2)n[nH]1
